This note sets out measurements from patent publication US8067456B2 (AEterna Zentaris GmbH, priority 2004, dated 2011).

In data set [1] the test system is LHRH-stimulated LH secretion from rat pituitary cells. Nature of the data set: Inhibition of LHRH-induced LH secretion from rat pituitary cells in vitro. Type of data set: cell-based. The following applies: LHRH 10 nM, 3 hours. How it is done:
The LH concentration in cell culture supernatants was measured using the rat luteinizing hormone (rLH) enzyme immunoassay (EIA) system ELISA (RPN 2562) from Amersham Pharmacia Biotech. All other chemicals used were from commercial sources in the highest purity available.
Juvenile male Wistar rats (Harlan Winkelmann, Germany) were sacrificed by decapitation, and the pituitaries were removed and taken up in Hanks' buffer (HBSS) with 0.3% BSA and 10 mM HEPES (pH 7.4). Pituitaries from 20 rats were required to carry out one experiment. The cells of the anterior lobe of the pituitary were separated from the remaining tissue by incubation in Hanks' buffer with 10 mM HEPES (pH 7.4), 0.3% BSA, 1 mg/ml hyaluronidase (type VIII), 1 mg/ml soybean trypsin inhibitor, 10 μg/ml DNAsel and 1 mg/ml papain at 37° C. for 30 minutes A sterile Pasteur pipette was used to disperse the cells, and they were subsequently pelleted by centrifugation. The cells were seeded in a density of 2.5×10^5 cells/well of a collagen-coated 48-well plate (Becton Dickinson) in DMEM medium (Invitrogen Life Technologies, Germany) with 10% fetal calf serum (FCS; Invitrogen Life Technologies, Germany), 10 mill nonessential amino acids and 10 mill Pen/Strep (penicillin/streptomycin).
The medium was changed after incubation at 37° C., 5% CO2 and 95% humidity for 48 h. The medium was replaced by LHRH-containing (10 nM) medium or medium with LHRH (10 nM) and test substance in the concentration indicated (table). After a further incubation for 3 hours, the cell supernatant was harvested and frozen at −20° C. The LH content was determined by means of ELISA in triplicate determination in accordance with the manufacturer's (Amersham Pharmacia Biotech) instructions.
In the following table, “% Inhibition” describes the quotient of LHRH-stimulated LH secretion with (“LH (ng/ml)” and without the addition of the test substance. The values originate from different, independent experiments.

Data set [2] can be described thus: Metabolic stability in human liver microsomes. The class given is in vitro ADME. The following applies: 1 μM, 37° C., NADPH. How it is done:
The metabolic stability in relation to liver microsomes (species human, rat) was determined in accordance with the following description: the substances were incubated at a test concentration of 1 […] An HPLC MS/MS method was subsequently used to quantify the unmetabolized amount of starting compound relative to 100%.
(Microsomes from liver hold many membrane-bound enzymes, among them those of drug oxidation.)

As for `CCC(C)[C@H](NC(=O)OCc1ccccc1)C(=O)N[C@]1(C(=O)N[C@H](C(N)=S)C(C)CC)CCc2[nH]c3c(Cl)cc(Cl)cc3c2C1` (stereo partly drawn) [Compound 7, benzyl {(S)-1-[(R)-6,8-dichloro-3-((S)-2-methyl-1-thiocarbamoylbutylcarbamoyl)-2,3,4,9-tetrahydro-1H-carbazol-3-ylcarbamoyl]-2-methylbutyl}carbamate], the inhibition at 0.033 µM in data set [1] (Rattus norvegicus, test substance 3.3 × 10^−8 M, read-out: % Inhibition) was 83%. In data set [1] (Rattus norvegicus, test substance 3.3 × 10^−9 M), the inhibition at 0.0033 µM worked out at 43%. The “LH (ng/ml) ± SD” value in data set [1] (test substance 3.3 × 10^−8 M) amounted to 79.9 ± 15.0 ng/mL; in data set [1] (test substance 3.3 × 10^−9 M), 194.0 ± 13.2 ng/mL. The molecule further had a recovery at 1 μM in data set [2] of 65%.

Broadly, the inhibition is the change of the read-out against control, counted positive when it falls.
